{"source": "patent US11800869B2", "about": "“Use of 6-oxo-1,4,5,6-tetrahydropyridazine-3-carboxylic acid, 1-methyl 6-oxo-1,4,5,6-tetrahydropyridazine-3-carboxylic acid and 1-alkyl-6-oxo-1,4,5,6-tetrahydropyridazine-3-carboxylic acid for improving growth performance in plants” (Advanced Crop Chem LLP, priority 2020, dated 2023)", "type_in_all_cases": "in vivo", "key": {"[1]": {"tested_on": "wheat (Var. VitPro) seedlings", "assay": "Foliar treatment of wheat, relative water content under drought stress (Example 17)", "conditions": "drought stressed, flag leaves, untreated drought stressed 35.8%", "procedure": "Wheat seedlings were given foliar treatments with a range of concentrations of 6-oxo-1,4,5,6 tetrahydropyridazine-3-carboxylic acid and the seedlings were grown to near maturity and drought stressed. Their relative water contents were determined to examine the effectiveness of different concentrations of 6-oxo-1,4,5,6-tetrahydropyridizine-3-carboxylic acid in conferring drought resistance.\nSets of wheat (Var. VitPro) seedlings were given foliar treatments of 6-oxo-1,4,5,6 tetrahydropyridazine-3-carboxylic acid at concentrations of 1 mM or 0.1 mM in aqueous solutions. Two treatments were made; one at Zaddok GS 12(FIG. 1) and a second at Zadoks GS 14 (FIG. 1) and the plants grown until the first flag leaf was fully developed on the control plants. The treated plants and one set of controls were then drought stressed and the relative water content was determined for each set of plants. There were two sets of control plants; one was maintained with normal watering and a second control was drought stressed along with the treated plants. When each of the plants had at least two wilted leaves the water content of the drought stressed plants was determined relative to that of the normal, well-watered control plants. The flag leaves were harvested and used to determine the relative water content."}, "[2]": {"tested_on": "Pepper", "assay": "Seed treatment plus foliar spray, root and shoot biomass and emergence, pepper (Example 2)", "procedure": "Winter wheat variety AWC 13 seeds were treated with either 6-oxo-1,4,5,6-tetrahydropyridazine-3-carboxylic acid (THP) or 1-methyl 6-oxo-1,4,5,6 tetrahydropyridazine-3-carboxylic acid (MTHP) at an effective rate of 10g diluted in 2 L water plus 0.25% Nouryon wetter and applied to 1 ton of seed. These seed were planted in coarse river sand and grown in a greenhouse under ambient light at the greenhouse at 21° C. Plants were irrigated every other day with water containing 50% strength Hoaglands solution. Plants were assessed for emergence and biomass accumulation 30 days after planting. The plants from seeds treated with 6-oxo-1,4,5,6-tetrahydropyridizin-3-carboxylic acid or 1-methyl 6-oxo-1,4,5,6 tetrahydropyridazine-3-carboxylic acid had larger root biomasses (0.83, 0.85 g, dry weight/plant) compared with plants from untreated seeds (0.65 g dry weight/plant). Wheat, corn and pepper seeds were treated with 6-oxo-1,4,5,6-tetrahydropyridizine-3-carboxylic acid (THP) using the same methodology and growth conditions as described in example 1 and the resulting plants were also treated with a light foliar cover spray using an electric hand-held sprayer. (100 g in 200 L water plus 0.25% Nouryon wetter) of 6-oxo-1,4,5,6 tetrahydropyridazine-3-carboxylic acid (30 days post emergence (wheat at Zadoks GS 14 (see FIG. 1), maize at V2, Pepper at 3-4 leaf stage) and then assessed for root and shoot biomass 45 days later. At 75 days post planting the plants were assessed for root and shoot biomass as measured with dry weight."}, "[3]": {"tested_on": "Soybean seeds (Var. Viking)", "assay": "Soybean seed treatment, germination paper, shoot fresh weight (Example 10)", "conditions": "seeds imbibed three minutes in 0.01 mM; germination paper 75-85° F; two table lines, Control 98.3 and 106.2", "procedure": "Soybean seeds were treated with 6-oxo-1,4,5,6 tetrahydropyridazine-3-carboxylic acid and the weights of the shoots were determined as shown in Table 2. Early seedling emergence is important for early establishment of a vigorous and productive crop. Soybean seeds (Var. Viking) were treated by imbibing them for three minutes with a solution of 0.01 mM 6-oxo-1,4,5,6 tetrahydropyridazine-3-carboxylic acid in an aqueous solution also containing soft soap and glycerol at pH 5.7-5.8. The control seeds were imbibed in aqueous solution containing only the soft soap and glycerol at pH 5.7-5.8. The seeds were placed on moist germination paper and allowed to germinate at 75-85° F. The fresh weights were taken to assess the shoot development."}, "[4]": {"tested_on": "Wheat", "assay": "Foliar treatment dose series, root and shoot fresh weight, wheat (Example 8)", "conditions": "35 days post treatment; for Root, FWt: dose 0: 1.8; for Shoot, FWt: dose 0: 3.2", "procedure": "Corn and wheat plants were given a foliar treatment […] (as described in Example 2) with 6-oxo-1,4,5,6 tetrahydropyridazine-3-carboxylic acid (THP) and then assessed for root and shoot biomass. Three treatment dosages were applied (Table 2). Plants were grown in a greenhouse with a diurnal cycle of 55-75F with ambient light. The plants were grown in a coarse river sand in 4″ pots with 0.5 g of Osmacote/pot. The mean root and shoot fresh weights were assessed at 35 days post treatment."}, "[5]": {"tested_on": "Wheat seeds (Var. VitPro)", "assay": "Wheat seed treatment, leaf wilting under drought (Example 16)", "conditions": "Drought stress; for Wilted leaves: 0 mM: 40; for Total leaves: 0 mM: 47; for % Wilted leaves: 0 mM: 85%", "procedure": "Wheat seeds were treated with 6-oxo-1,4,5,6 tetrahydropyridazine-3-carboxylic and leaf wilting was tracked to examine the resistance to drought in the seedlings as shown in Table 6. Wheat seeds (Var. VitPro) were treated with an aqueous solution of either 0 mM, 1 mM, 0.5 mM, 0.1 mM or 0.01 mM 6-oxo-1,4,5,6 tetrahydropyridazine-3-carboxylic acid at pH 5.7-5.8. The 0 mM 6-oxo-1,4,5,6-tetrahydropyridizine-3-carboxylic acid seeds were imbibed in aqueous solution containing only the soft soap and glycerol. The plants were allowed to grow to Zadoks GS13 (FIG. 1) when water was withheld until plants in all of the treatments had wilted leaves."}, "[6]": {"tested_on": "Field grown wheat plants (Var: AWC 13)", "assay": "Foliar treatment of field grown wheat (Example 6)", "conditions": "foliar treatment at Zadoks GS 25-26, 100 g in 200 L water, mean of 10 plants", "procedure": "Field grown wheat plants (Var: AWC 13) were given foliar treatment at Zadoks GS 25-26 (FIG. 1) of 6-oxo-1,4,5,6 tetrahydropyridazine-3-carboxylic acid (THP) or 1-methyl 6-oxo-1,4,5,6 tetrahydropyridazine-3-carboxylic acid (MTHP) both at 100 g in 200 L water plus 0.25% Nouryon wetter. Plants were grown under standard UK wheat growing cultural practice (https://andb.org.uk/wheatgg). Yield was assessed at harvest."}, "[7]": {"conditions": "seed treatment plus foliar spray 100 g in 200 L, 75 days post planting"}, "[8]": {"conditions": "foliar dose 50 g/ha in 200 L/ha"}, "[9]": {"conditions": "foliar dose 100 g/ha in 200 L/ha"}, "[10]": {"conditions": "foliar dose 200 g/ha in 200 L/ha"}}, "note": "“And” between values parts separate entries of the source, which are not always exact repeats. Equal entries are not always repeated.", "data": [{"molecule": "O=C1CCC(C(=O)O)=NN1", "note": "[THP, 6-oxo-1,4,5,6 tetrahydropyridazine-3-carboxylic acid]", "values": [{"measurement": "water content retained, relative to normally watered plants", "setting": "[1]; two foliar treatments 0.1 mM", "result": 67.7, "unit": "%"}, {"measurement": "water content retained, relative to normally watered plants", "setting": "[1]; two foliar treatments 1 mM", "result": 68.3, "unit": "%"}, {"measurement": "Root Dry Weight, % Difference vs Untreated", "setting": "[2]; [7]", "result": 19, "unit": "%"}, {"measurement": "Shoot Dry Weight, % Difference vs Untreated", "setting": "[2]; [7]", "result": 9, "unit": "%"}, {"measurement": "Emergence, % Difference vs Untreated", "setting": "[2]; seed treatment, % Emergence at 10 days post planting", "result": 24, "unit": "%"}, {"measurement": "Shoots, Fresh wt.", "setting": "[3]", "result": "114.3 mg and 128.6 mg"}, {"measurement": "Root, FWt", "setting": "[4]; [8]", "result": 2.1, "unit": "g"}, {"measurement": "Shoot, FWt", "setting": "[4]; [8]", "result": 4.4, "unit": "g"}, {"measurement": "Root, FWt", "setting": "[4]; [9]", "result": 1.9, "unit": "g"}, {"measurement": "Shoot, FWt", "setting": "[4]; [9]", "result": 5.2, "unit": "g"}, {"measurement": "Root, FWt", "setting": "[4]; [10]", "result": 2.7, "unit": "g"}, {"measurement": "Shoot, FWt", "setting": "[4]; [10]", "result": 5.8, "unit": "g"}, {"measurement": "Wilted leaves", "setting": "[5]; seed treatment 0.1 mM", "result": 18}, {"measurement": "Total leaves", "setting": "[5]; seed treatment 0.1 mM", "result": 61}, {"measurement": "% Wilted leaves", "setting": "[5]; seed treatment 0.1 mM", "result": 30, "unit": "%"}, {"measurement": "Wilted leaves", "setting": "[5]; seed treatment 0.5 mM", "result": 14}, {"measurement": "Total leaves", "setting": "[5]; seed treatment 0.5 mM", "result": 64}, {"measurement": "% Wilted leaves", "setting": "[5]; seed treatment 0.5 mM", "result": 22, "unit": "%"}, {"measurement": "Wilted leaves", "setting": "[5]; seed treatment 1 mM", "result": 19}, {"measurement": "Total leaves", "setting": "[5]; seed treatment 1 mM", "result": 57}, {"measurement": "% Wilted leaves", "setting": "[5]; seed treatment 1 mM", "result": 33, "unit": "%"}, {"measurement": "Dry Weight Shoot", "setting": "[6]; Con 0.47", "result": 1.01}, {"measurement": "Dry Weight Root", "setting": "[6]; Con 0.65", "result": 1.5}]}]}
